Results taken from the NIST ThermoML archive (doi:10.1021/je700260f).

Conditions: 303.15 K, Liquid, Vibrating tube method

FC(C(F)(F)F)C(F)(F)F [1,1,1,2,3,3,3-heptafluoropropane]
Conditions	mass density [kg/m3]
5013 kPa	1401.5
5035 kPa	1401.8
5060 kPa	1401.7
5082 kPa	1402.2
5116 kPa	1402.4
5146 kPa	1402.4
5172 kPa	1402.6
5194 kPa	1402.8
5221 kPa	1403
5239 kPa	1403
5261 kPa	1403.2
5286 kPa	1403.5
5308 kPa	1403.6
5335 kPa	1403.7
5356 kPa	1403.9
5379 kPa	1404
5405 kPa	1404.1
5427 kPa	1404.4
5457 kPa	1404.7
5479 kPa	1404.8
5509 kPa	1405
5546 kPa	1405.2
5568 kPa	1405.3
5609 kPa	1405.6
5635 kPa	1405.8
5654 kPa	1405.9
5688 kPa	1406.2
5715 kPa	1406.3
5738 kPa	1406.4
5768 kPa	1406.6
5795 kPa	1406.8
5829 kPa	1407.1
5856 kPa	1407.3
5879 kPa	1407.3
5906 kPa	1407.7
5934 kPa	1407.9
5957 kPa	1408
5980 kPa	1408.2
6003 kPa	1408.2
6033 kPa	1408.4
6056 kPa	1408.6
6080 kPa	1408.8
6108 kPa	1408.9
6135 kPa	1409
6167 kPa	1409.2
6186 kPa	1409.4
6217 kPa	1409.6
6240 kPa	1409.7
6272 kPa	1409.9
6300 kPa	1410.1
6332 kPa	1410.3
6356 kPa	1410.5
6382 kPa	1410.7
6413 kPa	1410.8
6441 kPa	1411.1
6469 kPa	1411.1
6493 kPa	1411.3
6529 kPa	1411.6
6556 kPa	1411.7
6581 kPa	1411.9
6617 kPa	1412.2
6647 kPa	1412.4
6675 kPa	1412.6
6699 kPa	1412.7
6720 kPa	1412.9
6744 kPa	1413.1
6772 kPa	1413.3
6796 kPa	1413.4
6820 kPa	1413.5
6845 kPa	1413.6
6881 kPa	1414
6909 kPa	1414.1
6937 kPa	1414.3
6974 kPa	1414.4
7006 kPa	1414.7
7030 kPa	1414.8
7056 kPa	1415
7077 kPa	1415.1
7110 kPa	1415.2
7138 kPa	1415.5
7171 kPa	1415.7
7192 kPa	1415.8
7216 kPa	1416
7441 kPa	1417.3
7474 kPa	1417.5
7507 kPa	1417.7
7536 kPa	1417.9
7570 kPa	1418.2
7599 kPa	1418.3
7628 kPa	1418.5
7669 kPa	1418.7
7702 kPa	1418.8
7727 kPa	1419
7762 kPa	1419.2
7795 kPa	1419.4
7821 kPa	1419.5
7850 kPa	1419.8
7879 kPa	1420
7912 kPa	1420.3
7941 kPa	1420.4
7970 kPa	1420.6
8008 kPa	1420.7
8033 kPa	1421
